Reference: patent US20240166617A1, “PHOSPHOINOSITIDE 3 KINASE BETA INHIBITORS AND COMPOSITIONS AND METHODS THEREOF” (Geode Therapeutics Inc., priority 2021, published 2024)
Where two headings read alike, the source gives them in different places.

Legend:
PIK3Cb_h = target: T1, PIK3Cb_h (Homo sapiens, UniProt P42338); assay: Enzyme binding assay (KINOMEscan); conditions: Eurofins DiscoveRx
T1 construct: purchased Eurofins DiscoveRx Corporation
Experimental: Kinase enzyme binding affinities of compounds disclosed herein were determined using the KINOMEscan technology performed by Eurofins DiscoveRx Corporation, San Diego, California, USA (www.eurofinsdiscoveryservices.com). Table 2 reports the obtained PIK3β Kd values (nM) of, with the PIK3β Kd being the inhibitor binding constant. Table 3 reports the obtained Kd values (nM), with the Kd being the inhibitor binding constant: […]

[1] = tested on: phosphorylation of AKT in HCC70 cells; assay: Cellular assay: phosphorylation of AKT in HCC70 cells (western blotting); assay type: cell-based; conditions: Homo sapiens, HCC70, 1 h
Experimental: Cellular activity of PI3Kβ inhibitors was determined by quantifying the phosphorylation of AKT in HCC70 cells. AKT phosphorylated at Ser473 and Thr308 were measured using western blotting and specific primary antibodies from Cell Signaling (CST), Danvers, MA. On day 1, HCC70 cells (ATCC #CRL-2315) were seeded into Falcon 12-well cell Culture Plate (Corning #353043) at 100,000 cells per well, in 1 ml complete culture medium (RPMI-1640, GIBCO #11875093) containing 10% heat inactivated FBS (GIBCO #10438026), 1% Pen-Strep (GIBCO #15140122) and incubated at 37° AC, 5% CO2 overnight. On day 2, compound (500 nM) or DMSO (0.1%, Sigma Aldrich #8418) was added and cells were further incubated for 60 min at 37° AC, 5% CO2 in a total volume of 1 ml fresh medium.
At the end of the cell treatment period, media were removed by aspiration and adherent cells were lysed in 100 uL RIPA buffer (Sigma Aldrich #R0278). Equal volume (15 uL) of proteins was resolved by SDS-PAGE and transferred to PVDF (Millipore #IPFL00010) membrane for immunoblot analysis. Primary antibodies to the following proteins were used for immunoblotting: phosphor-AKT (Ser473) (CST #4060), phosphor-AKT (Thr308) (CST #2965), total AKT (CST #9272). Secondary goat anti-rabbit IgG fluorophore conjugated antibody (Invitrogen #A21109) was used to visualize the indicated proteins on an Odyssey CLx imaging system (Li-Cor). Quantification of band intensities was performed using Odyssey 3.0 software. Inhibition of Akt activity was calculated by band intensities using the formula: […]
Index was evaluated by % of AI. Data represent Index+(20˜60%), ++(60%˜80%), +++(80%˜90%), and ++++>90%.

[2] = HCC70 cells, compound 500 nM, 60 min, inhibition of Akt activity from band intensities, read-out: Index of AI (HCC70) p-AKT Thr 308
[3] = HCC70 cells, compound 500 nM, 60 min, inhibition of Akt activity from band intensities, read-out: Index of AI (HCC70) p-AKT ser 473
[4] = read-out: Index of AI (HCC70) p-AKT Thr 308
[5] = read-out: Index of AI (HCC70) p-AKT ser 473

T1 sequence (P42338 whole entry): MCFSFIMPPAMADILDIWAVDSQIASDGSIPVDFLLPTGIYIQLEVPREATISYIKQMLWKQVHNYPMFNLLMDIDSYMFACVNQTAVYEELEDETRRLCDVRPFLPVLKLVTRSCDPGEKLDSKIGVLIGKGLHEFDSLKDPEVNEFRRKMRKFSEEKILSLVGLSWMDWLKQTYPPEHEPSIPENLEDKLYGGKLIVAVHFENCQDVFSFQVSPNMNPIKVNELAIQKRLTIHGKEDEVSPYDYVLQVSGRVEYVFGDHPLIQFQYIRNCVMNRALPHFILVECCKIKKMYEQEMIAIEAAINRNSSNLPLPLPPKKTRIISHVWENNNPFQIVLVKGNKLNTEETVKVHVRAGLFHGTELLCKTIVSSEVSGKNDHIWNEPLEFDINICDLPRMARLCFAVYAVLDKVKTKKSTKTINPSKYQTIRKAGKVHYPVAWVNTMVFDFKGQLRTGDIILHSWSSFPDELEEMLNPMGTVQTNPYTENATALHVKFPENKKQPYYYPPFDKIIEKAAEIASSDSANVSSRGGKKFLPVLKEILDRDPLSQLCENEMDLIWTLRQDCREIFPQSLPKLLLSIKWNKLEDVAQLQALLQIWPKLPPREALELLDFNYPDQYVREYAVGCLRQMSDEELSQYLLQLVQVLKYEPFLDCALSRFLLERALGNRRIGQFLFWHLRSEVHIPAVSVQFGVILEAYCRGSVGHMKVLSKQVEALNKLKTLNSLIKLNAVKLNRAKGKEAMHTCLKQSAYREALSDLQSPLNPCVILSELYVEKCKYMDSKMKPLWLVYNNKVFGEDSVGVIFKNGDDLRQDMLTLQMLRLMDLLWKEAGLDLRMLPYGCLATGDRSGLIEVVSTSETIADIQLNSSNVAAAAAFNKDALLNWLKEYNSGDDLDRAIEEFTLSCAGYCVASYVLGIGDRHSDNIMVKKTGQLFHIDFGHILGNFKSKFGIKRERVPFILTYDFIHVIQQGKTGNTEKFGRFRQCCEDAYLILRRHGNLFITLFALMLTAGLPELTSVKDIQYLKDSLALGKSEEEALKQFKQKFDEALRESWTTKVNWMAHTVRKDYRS

Kd (PIK3Cb_h) [nM] | SMILES | inhibition at 0.5 µM [1, 2] [%] | inhibition at 0.5 µM [1, 3] [%] | inhibition at 0.5 µM [1, 4] [%] | inhibition at 0.5 µM [1, 5] [%]
0.55 | CC(Nc1cc(F)cc(F)c1)c1cc(NC(=O)C2CCCC2)cc2c(=O)cc(N3CCOCC3)oc12 (centres unmarked) [Compound 12, N-(8-(1-((3,5-difluorophenyl)amino)ethyl)-2-morpholino-4-oxo-4H-chromen-6-yl)cyclopentanecarboxamide] | > 90 | > 90 |  | 
0.14 | CC(Nc1cc(F)cc(F)c1)c1cc(NS(C)(=O)=O)cc2c(=O)cc(N3CCOCC3)oc12 (centres unmarked) [Compound 13, N-(8-(1-((3,5-difluorophenyl)amino)ethyl)-2-morpholino-4-oxo-4H-chromen-6-yl)methanesulfonamide] | 80 to 90 | 80 to 90 |  | 
0.059 | CC(Nc1cc(F)cc(F)c1)c1cc(O)cc2c(=O)cc(N3CCOCC3)oc12 (centres unmarked) [Compound 15, 8-(1-((3,5-difluorophenyl)amino)ethyl)-6-hydroxy-2-morpholino-4H-chromen-4-one] | > 90 | > 90 |  | 
0.067 | CC(Nc1cc(F)cc(F)c1)c1cc(N)cc2c(=O)cc(N3CCOCC3)oc12 (centres unmarked) [Compound 19, 6-amino-8-(1-((3,5-difluorophenyl)amino)ethyl)-2-morpholino-4H-chromen-4-one] | > 90 | > 90 |  | 
0.21 | COC(=O)Cc1cc(C(C)Nc2cc(F)cc(F)c2)c2oc(N3CCOCC3)cc(=O)c2c1 (centres unmarked) [Compound 25, methyl 2-(8-(1-((3,5-difluorophenyl)amino)ethyl)-2-morpholino-4-oxo-4H-chromen-6-yl)acetate] | > 90 | > 90 |  | 
0.28 | CC(Nc1cc(F)cc(F)c1)c1cc(C(=O)N2CCC(N(C)C)C2)cc2c(=O)cc(N3CCOCC3)oc12 (centres unmarked) [Compound 27, 8-(1-((3,5-difluorophenyl)amino)ethyl)-6-(3-(dimethylamino)pyrrolidine-1-carbonyl)-2-morpholino-4H-chromen-4-one] | > 90 | > 90 |  | 
0.17 | CC(Nc1cc(F)cc(F)c1)c1cc(C(=O)N2CC[C@@H](N(C)C)C2)cc2c(=O)cc(N3CCOCC3)oc12 (stereo partly drawn) [Compound 29, 8-(1-((3,5-difluorophenyl)amino)ethyl)-6-((R)-3-(dimethylamino)pyrrolidine-1-carbonyl)-2-morpholino-4H-chromen-4-one] | > 90 | > 90 |  | 
0.32 | CC(Nc1cc(F)cc(F)c1)c1cc(C(=O)N2CC[C@H](N(C)C)C2)cc2c(=O)cc(N3CCOCC3)oc12 (stereo partly drawn) [Compound 30, 8-(1-((3,5-difluorophenyl)amino)ethyl)-6-((S)-3-(dimethylamino)pyrrolidine-1-carbonyl)-2-morpholino-4H-chromen-4-one] | 80 to 90 | 80 to 90 |  | 
 | CC1(C#N)CN(C(=O)c2cc(CN3CCc4c(F)cc(F)cc43)c3oc(N4CCOCC4)cc(=O)c3c2)C1 [Compound 88, 1-(8-((4,6-difluoroindolin-1-yl)methyl)-2-morpholino-4-oxo-4H-chromene-6-carbonyl)-3-methylazetidine-3-carbonitrile] | 60 to 80 | 60 to 80 |  | 
 | O=C(c1cc(CN2CCc3c(F)cc(F)cc32)c2oc(N3CCOCC3)cc(=O)c2c1)N1CC(O)C1 [Compound 89, 8-((4,6-difluoroindolin-1-yl)methyl)-6-(3-hydroxyazetidine-1-carbonyl)-2-morpholino-4H-chromen-4-one] |  | 20 to 60 |  | 
 | CN(C)C(=O)c1cc(CN2CCc3c(F)cc(F)cc32)c2oc(N3CCO[C@H](CO)C3)cc(=O)c2c1 [Compound 92, (S)-8-((4,6-difluoroindolin-1-yl)methyl)-2-(2-(hydroxymethyl)morpholino)-N,N-dimethyl-4-oxo-4H-chromene-6-carboxamide] |  |  | 60 to 80 | 60 to 80
 | CN(C)C(=O)c1cc(CN2CCc3c(F)cc(F)cc32)c2oc(N3CCO[C@H](CF)C3)cc(=O)c2c1 [Compound 93, (S)-8-((4,6-difluoroindolin-1-yl)methyl)-2-(2-(fluoromethyl)morpholino)-N,N-dimethyl-4-oxo-4H-chromene-6-carboxamide] | 80 to 90 | 80 to 90 |  | 
 | CC(Nc1ccc(F)c(F)c1)c1cc(C(=O)N2CC[C@@H](N(C)C)C2)cn2c(=O)cc(N3CCOCC3)nc12 (stereo partly drawn) [Compound 94, 9-(1-((3,4-difluorophenyl)amino)ethyl)-7-((R)-3-(dimethylamino)pyrrolidine-1-carbonyl)-2-morpholino-4H-pyrido[1,2-a]pyrimidin-4-one] |  |  | 60 to 80 | 60 to 80
 | CC(Nc1cccc(F)c1F)c1cc(C(=O)N2CC[C@@H](N(C)C)C2)cn2c(=O)cc(N3CCOCC3)nc12 (stereo partly drawn) [Compound 95, 9-(1-((2,3-difluorophenyl)amino)ethyl)-7-((R)-3-(dimethylamino)pyrrolidine-1-carbonyl)-2-morpholino-4H-pyrido[1,2-a]pyrimidin-4-one] |  |  | 60 to 80 | 60 to 80
 | CC1Cc2c(F)cc(F)cc2N1C(C)c1cc(C(=O)N(C)C)cn2c(=O)cc(N3CCOCC3)nc12 (centres unmarked) [Compound 96, 9-(1-(4,6-difluoro-2-methylindolin-1-yl)ethyl)-N,N-dimethyl-2-morpholino-4-oxo-4H-pyrido[1,2-a]pyrimidine-7-carboxamide] | > 90 | > 90 |  | 
 | CC(c1cc(C(=O)N2CC[C@@H](N(C)C)C2)cn2c(=O)cc(N3CCOCC3)nc12)N1CCc2cccc(Cl)c21 (stereo partly drawn) [Compound 97, 9-(1-(7-chloroindolin-1-yl)ethyl)-7-((R)-3-(dimethylamino)pyrrolidine-1-carbonyl)-2-morpholino-4H-pyrido[1,2-a]pyrimidin-4-one] | 20 to 60 | 20 to 60 |  | 
 | CN(C)C(=O)c1cc(CN2CCc3c(F)cc(F)cc32)c2nc(N3CCOCC3)cc(=O)n2c1 [Compound 98, 9-((4,6-difluoroindolin-1-yl)methyl)-N,N-dimethyl-2-morpholino-4-oxo-4H-pyrido[1,2-a]pyrimidine-7-carboxamide] | 80 to 90 | 80 to 90 |  | 
 | CN(C)C(=O)c1cc(CN2CCc3c(F)ccc(F)c32)c2nc(N3CCOCC3)cc(=O)n2c1 [Compound 99, 9-((4,7-difluoroindolin-1-yl)methyl)-N,N-dimethyl-2-morpholino-4-oxo-4H-pyrido[1,2-a]pyrimidine-7-carboxamide] | 80 to 90 | 80 to 90 |  | 
 | CN(C)C(=O)c1cc(CN2CCc3c(Cl)ccc(F)c32)c2nc(N3CCOCC3)cc(=O)n2c1 [Compound 100, 9-((4-chloro-7-fluoroindolin-1-yl)methyl)-N,N-dimethyl-2-morpholino-4-oxo-4H-pyrido[1,2-a]pyrimidine-7-carboxamide] | 80 to 90 | 80 to 90 |  | 
 | C[C@@H]1CN(c2cc(=O)n3cc(C(=O)N(C)C)cc(CN4CCc5c(F)cccc54)c3n2)CCO1 [Compound 101, (R)-9-((4-fluoroindolin-1-yl)methyl)-N,N-dimethyl-2-(2-methylmorpholino)-4-oxo-4H-pyrido[1,2-a]pyrimidine-7-carboxamide] | > 90 | > 90 |  | 
